Key:
Assay in all cases: relative viability (nuclei count vs DMSO), 5 days (fraction); higher = more cells survive
NCI-H1355 = system: NCI-H1355
In short: (§1)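 One day after seeding in 1536-well plates, lung cancer cell lines were dosed by pin tool. Dosing was either single-drug or a fixed anchor-drug dose plus five library-drug doses (not always all listed) in √10 steps. After 5 days, nuclei were stained in one fix-and-stain step and counted on 4× images, and relative viability is the nuclei count of treated wells over that of vehicle wells, given as the median of duplicate plates.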

UMC-11 = system: UMC-11
In short: as §1

NCI-H1563 = system: NCI-H1563
In short: as §1

NCI-H1944 = system: NCI-H1944
In short: as §1

NCI-H1651 = system: NCI-H1651
In short: as §1

LCLC-97TM1 = system: LCLC-97TM1
In short: as §1

ChaGo-K-1 = system: ChaGo-K-1
In short: as §1

HCC-44 = system: HCC-44
In short: as §1

NCI-H650 = system: NCI-H650
In short: as §1

EPLC-272H = system: EPLC-272H
In short: as §1

SK-MES-1 = system: SK-MES-1
In short: as §1

NCI-H2405 = system: NCI-H2405
In short: as §1

LCLC-103H = system: LCLC-103H
In short: as §1

NCI-H322M = system: NCI-H322M
In short: as §1

HCC-827 = system: HCC-827
In short: as §1

NCI-H520 = system: NCI-H520
In short: as §1

NCI-H2087 = system: NCI-H2087
In short: as §1

NCI-H2085 = system: NCI-H2085
In short: as §1

EMC-BAC-2 = system: EMC-BAC-2
In short: as §1

H3255 = system: H3255
In short: as §1

NCI-H2023 = system: NCI-H2023
In short: as §1

C=C1C(=O)O[C@@H](CCCCCCCC)[C@@H]1C(=O)O [C-75] + C[C@@H](Oc1cc(-c2cnn(C3CCNCC3)c2)cnc1N)c1c(Cl)ccc(F)c1Cl [Crizotinib] (partner 1 µM)
relative viability (NCI-H1355; first compound 0.08 µM): 1.05 | relative viability (NCI-H1355; first compound 0.253 µM): 1.01 | relative viability (NCI-H1355; first compound 0.8 µM): 0.97 | relative viability (NCI-H1355; first compound 2.53 µM): 1.1 | relative viability (NCI-H1355; first compound 8 µM): 1.01 | relative viability (UMC-11; first compound 0.08 µM): 0.688 | relative viability (UMC-11; first compound 0.253 µM): 0.625 | relative viability (UMC-11; first compound 0.8 µM): 0.651 | relative viability (UMC-11; first compound 2.53 µM): 0.497 | relative viability (UMC-11; first compound 8 µM): 0.461 | relative viability (NCI-H1563; first compound 0.08 µM): 0.801 | relative viability (NCI-H1563; first compound 0.253 µM): 0.909 | relative viability (NCI-H1563; first compound 0.8 µM): 0.865 | relative viability (NCI-H1563; first compound 2.53 µM): 0.826 | relative viability (NCI-H1563; first compound 8 µM): 0.931 | relative viability (NCI-H1944; first compound 0.08 µM): 1.06 | relative viability (NCI-H1944; first compound 0.253 µM): 0.998 | relative viability (NCI-H1944; first compound 0.8 µM): 1.05 | relative viability (NCI-H1944; first compound 8 µM): 1.03 | relative viability (NCI-H1651; first compound 0.08 µM): 0.793 | relative viability (NCI-H1651; first compound 0.253 µM): 0.882 | relative viability (NCI-H1651; first compound 0.8 µM): 0.852 | relative viability (NCI-H1651; first compound 2.53 µM): 0.731 | relative viability (NCI-H1651; first compound 8 µM): 0.889 | relative viability (LCLC-97TM1; first compound 0.08 µM): 0.274 | relative viability (LCLC-97TM1; first compound 0.253 µM): 0.461 | relative viability (LCLC-97TM1; first compound 0.8 µM): 0.328 | relative viability (LCLC-97TM1; first compound 2.53 µM): 0.253 | relative viability (LCLC-97TM1; first compound 8 µM): 0.29 | relative viability (ChaGo-K-1; first compound 0.08 µM): 1.03 | relative viability (ChaGo-K-1; first compound 0.253 µM): 0.983 | relative viability (ChaGo-K-1; first compound 0.8 µM): 1.12 | relative viability (ChaGo-K-1; first compound 2.53 µM): 0.818 | relative viability (ChaGo-K-1; first compound 8 µM): 1.08 | relative viability (HCC-44; first compound 0.08 µM): 0.787 | relative viability (HCC-44; first compound 0.253 µM): 0.815 | relative viability (HCC-44; first compound 0.8 µM): 0.795 | relative viability (HCC-44; first compound 2.53 µM): 0.659 | relative viability (HCC-44; first compound 8 µM): 0.719 | relative viability (NCI-H650; first compound 0.08 µM): 0.679 | relative viability (NCI-H650; first compound 0.253 µM): 0.72 | relative viability (NCI-H650; first compound 0.8 µM): 0.668 | relative viability (NCI-H650; first compound 2.53 µM): 0.597 | relative viability (NCI-H650; first compound 8 µM): 0.729 | relative viability (EPLC-272H; first compound 0.08 µM): 0.86 | relative viability (EPLC-272H; first compound 0.253 µM): 0.994 | relative viability (EPLC-272H; first compound 0.8 µM): 0.824 | relative viability (EPLC-272H; first compound 2.53 µM): 0.672 | relative viability (EPLC-272H; first compound 8 µM): 0.658 | relative viability (SK-MES-1; first compound 0.08 µM): 1.04 | relative viability (SK-MES-1; first compound 0.253 µM): 0.997 | relative viability (SK-MES-1; first compound 0.8 µM): 0.953 | relative viability (SK-MES-1; first compound 8 µM): 0.941 | relative viability (NCI-H2405; first compound 0.08 µM): 0.825 | relative viability (NCI-H2405; first compound 0.253 µM): 0.683 | relative viability (NCI-H2405; first compound 0.8 µM): 0.796 | relative viability (NCI-H2405; first compound 2.53 µM): 0.785 | relative viability (NCI-H2405; first compound 8 µM): 0.868 | relative viability (LCLC-103H; first compound 0.08 µM): 1.08 | relative viability (LCLC-103H; first compound 0.253 µM): 1.03 | relative viability (LCLC-103H; first compound 0.8 µM): 1.05 | relative viability (LCLC-103H; first compound 2.53 µM): 0.899 | relative viability (LCLC-103H; first compound 8 µM): 0.978 | relative viability (NCI-H322M; first compound 0.08 µM): 0.977 | relative viability (NCI-H322M; first compound 0.253 µM): 1.19 | relative viability (NCI-H322M; first compound 0.8 µM): 0.919 | relative viability (NCI-H322M; first compound 2.53 µM): 0.971 | relative viability (NCI-H322M; first compound 8 µM): 0.973 | relative viability (HCC-827; first compound 0.08 µM): 0.917 | relative viability (HCC-827; first compound 0.253 µM): 0.88 | relative viability (HCC-827; first compound 0.8 µM): 0.872 | relative viability (HCC-827; first compound 2.53 µM): 0.973 | relative viability (HCC-827; first compound 8 µM): 0.946 | relative viability (NCI-H520; first compound 0.08 µM): 0.607 | relative viability (NCI-H520; first compound 0.253 µM): 0.841 | relative viability (NCI-H520; first compound 0.8 µM): 0.673 | relative viability (NCI-H520; first compound 2.53 µM): 0.706 | relative viability (NCI-H520; first compound 8 µM): 0.651 | relative viability (NCI-H2087; first compound 0.08 µM): 0.942 | relative viability (NCI-H2087; first compound 0.253 µM): 0.563 | relative viability (NCI-H2087; first compound 0.8 µM): 0.837 | relative viability (NCI-H2087; first compound 2.53 µM): 0.608 | relative viability (NCI-H2087; first compound 8 µM): 0.711 | relative viability (NCI-H2085; first compound 0.08 µM): 0.739 | relative viability (NCI-H2085; first compound 0.253 µM): 0.803 | relative viability (NCI-H2085; first compound 0.8 µM): 0.878 | relative viability (NCI-H2085; first compound 2.53 µM): 0.656 | relative viability (NCI-H2085; first compound 8 µM): 0.878 | relative viability (EMC-BAC-2; first compound 0.08 µM): 0.752 | relative viability (EMC-BAC-2; first compound 0.253 µM): 0.731 | relative viability (EMC-BAC-2; first compound 0.8 µM): 0.744 | relative viability (EMC-BAC-2; first compound 2.53 µM): 0.692 | relative viability (EMC-BAC-2; first compound 8 µM): 0.704 | relative viability (H3255; first compound 0.08 µM): 0.909 | relative viability (H3255; first compound 0.253 µM): 0.932 | relative viability (H3255; first compound 0.8 µM): 0.875 | relative viability (H3255; first compound 2.53 µM): 0.841 | relative viability (H3255; first compound 8 µM): 0.843 | relative viability (NCI-H2023; first compound 0.08 µM): 0.654 | relative viability (NCI-H2023; first compound 0.253 µM): 0.767 | relative viability (NCI-H2023; first compound 0.8 µM): 0.698 | relative viability (NCI-H2023; first compound 2.53 µM): 0.444 | relative viability (NCI-H2023; first compound 8 µM): 0.626

Source: the supplement of paper PMC10307832
